The results in this text go back to patent US8658677B2, “Pyridyl-2-methylamino compounds, compositions and uses thereof” (Aria Neurosciences Inc., priority 2011, dated 2014).

Experiment [1] concerns the target T1, Aβ40 (Homo sapiens, UniProt P05067).
T1 construct: host or cells: chemical solid-phase peptide synthesis (no expression host)
The experiment can be described thus: Thioflavin-T fibrillization assay. It counts as biochemical. From the text: Synthetic Aβ 1-40 peptide (sequence: […]) was synthesized at the W.M. Keck Foundation Facility (Yale University, New Haven, Conn.) by solid-phase technique on a p-methyl-benzhydrylamine resin, using a Biosearch SAM 2 synthesizer and purified by high performance liquid chromatography (HPLC) with the use of a reverse-phase support medium (Delta-Bondapak) on a 0.78×30 cm column with a 0-66% linear gradient of acetonitrile in 0.1% (v/v) trifluroacetic acid, as previously described. The peptide content of the eluate was monitored by measurement of its absorption at 214 nm. To verify the sequence and purity of the peptide, linear, time-of-flight mass spectrometry was performed at the Skirball Institute at New York University. For aggregation studies the peptide was diluted in 1,1,1,3,3,3-hexafluoro-2-propanol (HFIP; Sigma St. Loius, Mo.) at a concentration of 10 mM/mL, aliquoted and lyophilized. HFIP treatment renders peptides monomeric with minimal β-sheet content. Lyophilized peptides were stored at −80° C. and resuspended immediately prior to each experiment in the appropriate diluent.
The effect of compounds of the present invention on aggregation of Aβ 1-40 peptide was tested using a Thioflavin-T assay according to previously published methods. Aggregation of Aβ 1-40 incubated alone was measured for comparison. Aβ 1-40 was HFIP treated (as described above) and reconstituted in 100 mM Tris buffer (pH 7.4) to obtain a 100 μmol/L concentration. Stock of investigational compounds (50 mmol/L stock diluted in DMSO) was added to Aβ 1-40 to achieve of a concentration 10 or 100 μmol/L of investigational compound in 100 μmol/L of Aβ 1-40. All incubations were performed over a period of 7 days at 37° C. and the incubation mixture was slowly mixed for 6 hours every 24 h. At the conclusion of the experiment samples containing 15 μg of Aβ 1-40 with and without investigational compounds were added to 1 mL of 50 mM glycine, pH 9.2 and 2 μM of Thioflavin-T (Sigma Chemical, Co.; St. Louis, Mo.). Fluorescence was measured at an excitation of 435 nm and an emission of 485 nm in a Perkin-Elmer LS-50B fluorescence spectrophotometer (Perkin Elmer Instruments, Shelton, Conn.). A time scan of fluorescence was performed and three values after the decay reached a plateau (280, 290, 300 seconds) were averaged. The background fluorescence of 40 μL of Tris buffer added to 2 μM/L of Thioflavin-T solution was subtracted. Samples were run in duplicate. Differences in amount of fibrils formed in the presence of investigational compounds were evaluated by means of one-way ANOVA followed by a Dunnet post-hoc test using Statistica (version 6.1, StatSoft Inc., OK).
[…] monomerized synthetic Aβ40 was incubated in 0.1M Tris pH 7.0, T=37° C. for 8 days in the presence of 0-100 μM concentration of compounds. […] An arrow indicates Aβ monomers clustered in ill developed protofibril. (C) Oligomerization assay. ARN4261 and ARN4224 reduced the amount of Aβ oligomers by 78% and 74%, respectively p<0.001. A compound 69b (GKLVFNmgA) was used as a positive control. 69b is homologous to Aβ sequence 17-21 and contains N-methyl glycine (Nmg), which renders it capable of anti-fibrillization and anti-oligomerization effect. (D) Principle of oligomerization assay. 100 μM Aβ40 was aggregated alone or with the addition of 10 μM of tested compounds [1:10 compound: Ab ratio] for 24 h in conditions promoting oligomers assembly, i.e., DMEM/F-12 medium+0.2% SDS, T=4° C. Prior to SDS-PAGE in non-reducing conditions samples were treated with glutaraldehyde. A strong smear of Aβ oligomers is seen between 37 and 70 KDa markers (arrows) in lane 2, and a dense band below the 25 KDa marker reflects Aβ monomers non-dissociated by 10% polyacrylamide gel. No oligomers above 37 KDa marker are seen in lane 1 containing only Aβ monomers run as a control. […] (E) TEM of Aβ oligomers. […] Yellow arrowhead indicates smaller oligomers.

Experiment [2] has as its system Aβ40. The experiment can be described thus: Secretion of Aβ40 by 751APPSW CHO cells (sandwich ELISA). It is filed as cell-based. As to conditions: 48 hr; for Emax: read-out: EMAX of Aβ40 production inhibition; for IC50: read-out: IC50% of Aβ40 production. The method, then:
In addition to studying the effect of ARN4261 and ARN2966 on Aβ oligomerization and fibrillization, we have explored their properties in respect to the modulation of Aβ production using CHO clones stably transfected with WT human APP751 and double Swedish APP751 mutant (KM670/671NL). The results in FIGS. 3(A) and 3(B) show inhibitory effect of ARN4261 and ARN2966 on secretion of Aβ40 and Aβ42 by 751APPSW CHO cells exposed to ARN compounds for 48 hr. Values are expressed as % of Aβ40 and Aβ42 levels in conditioned media (CM) of untreated cells. FIG. 3(C) Concentrations of Aβ40 and Aβ42 in 751APPSWCHO cell CM under increasing concentrations of ARN2966. 751APPSWCHO cells secrete Aβ40 and Aβ42 in proportions 9:1, akin to the proportions of Aβ peptides produced by neurons. […] Aβ40 and Aβ42 levels were determined using sandwich ELISA where C-terminal specific anti Aβ40 and Aβ42 mAbs were used as capture Abs and biotinylated 4G8 as the detection Ab. […] We also confirmed that ARN2966 inhibited secretion of Aβ by primary neuronal cultures derived from Tg2576 AD Tg mice.

Experiment [3] deals with APP mRNA. In words: APP mRNA level in 751APPSW CHO cells. It is filed as cell-based, human. On the procedure:
D. APP was immunoprecipitated with 22C11 mAb against its N-terminus. Representative radiographs (B) and densitometric results averaged from three independent experiments are shown (A). […] Two sets of experiments were conducted using either actin or GAPDH as housekeeping genes.

Molecules are shown by their SMILES. Entries after “also recorded” stand apart in the source; their conditions may differ.

T1 sequence (P05067 672-711): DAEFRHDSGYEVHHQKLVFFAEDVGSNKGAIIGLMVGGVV

What is called Emax is the size of the effect at its maximum, as opposed to the concentration needed. As usually defined, the IC50 is the concentration needed to halve the response being measured. For `Oc1ccccc1NCc1ccccn1` [ARN2966, 2-[(pyridine-2-ylmethyl)-amino]-phenol], the “behaviour in anti-Aβ aggregation assays” value in experiment [1] (compared with ARN4261) was “behaves comparably to ARN4261”. Besides, in experiment [2], the maximal response (Emax) is 97 ± 0.3% and the IC50 stood at 0.81 µM. Besides, in experiment [3], the “APP mRNA level” value is reported as “No change; also recorded: lack of substantial effect”.

As a reminder, the EC50 is the concentration giving half of the maximal effect. For `Oc1ccccc1N=Cc1ccccn1` [ARN4261, 2-(Pyridin-2-ylmethyleneamino)-phenol], the EC50 in experiment [1] (100 μM HFIP monomerized synthetic Aβ40, 0.1M Tris pH 7.0, 37° C., 8 days, 0-100 μM compound, read-out: EC50 of fibril reduction) stood at 16 µM. The maximal effect (Emax) in experiment [1] (pH 7, read-out: EMAX (% of maximal fibril reduction)) came to 88%; in experiment [2], 97.4 ± 0.25%. In addition, the “TEM analysis of Aβ fibrils” value in experiment [1] (transmission electron microscopy) was “markedly reduced density and length of Aβ fibrils”. In addition, in experiment [2], the IC50 is 0.82 µM. The “APP mRNA level” value in experiment [3] is “lack of substantial effect”.
